Experiments:
[1] = target: T1, Mitogen-activated protein kinase kinase kinase 7 (Homo sapiens, UniProt O43318); assay: Inhibition of TAK1 in human HCT116 cells assessed as inhibition of TNF-alpha-stimulated JNK phosphorylation; assay type: cell-based, HCT-116
T1 sequence (O43318 whole entry): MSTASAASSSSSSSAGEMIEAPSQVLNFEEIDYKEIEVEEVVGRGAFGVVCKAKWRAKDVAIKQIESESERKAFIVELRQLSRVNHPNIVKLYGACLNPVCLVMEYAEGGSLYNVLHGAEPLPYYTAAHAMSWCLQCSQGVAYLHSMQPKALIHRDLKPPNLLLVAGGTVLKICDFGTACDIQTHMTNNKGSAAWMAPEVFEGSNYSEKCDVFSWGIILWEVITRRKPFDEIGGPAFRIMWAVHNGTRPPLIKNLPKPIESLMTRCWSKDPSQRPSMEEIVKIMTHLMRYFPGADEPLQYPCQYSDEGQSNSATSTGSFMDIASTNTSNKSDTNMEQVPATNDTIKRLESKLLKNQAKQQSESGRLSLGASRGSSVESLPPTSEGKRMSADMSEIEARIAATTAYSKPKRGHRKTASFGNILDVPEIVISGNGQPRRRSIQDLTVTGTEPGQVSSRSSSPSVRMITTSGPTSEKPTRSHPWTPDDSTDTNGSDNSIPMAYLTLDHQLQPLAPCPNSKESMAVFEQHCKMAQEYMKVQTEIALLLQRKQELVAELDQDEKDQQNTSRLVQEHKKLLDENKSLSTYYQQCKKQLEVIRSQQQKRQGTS

TAK1/TAB1 = TAK1/TAB1 (Homo sapiens, UniProt O43318); assay: Inhibition of truncated TAK1-TAB1(unknown origin) using MKK7 as substrate by ALPHAScreen assay in presence of ATP; assay type: protein-complex assay
Sequence of TAK1/TAB1 (Q15750 whole entry, one chain of several, the tested form may be a part): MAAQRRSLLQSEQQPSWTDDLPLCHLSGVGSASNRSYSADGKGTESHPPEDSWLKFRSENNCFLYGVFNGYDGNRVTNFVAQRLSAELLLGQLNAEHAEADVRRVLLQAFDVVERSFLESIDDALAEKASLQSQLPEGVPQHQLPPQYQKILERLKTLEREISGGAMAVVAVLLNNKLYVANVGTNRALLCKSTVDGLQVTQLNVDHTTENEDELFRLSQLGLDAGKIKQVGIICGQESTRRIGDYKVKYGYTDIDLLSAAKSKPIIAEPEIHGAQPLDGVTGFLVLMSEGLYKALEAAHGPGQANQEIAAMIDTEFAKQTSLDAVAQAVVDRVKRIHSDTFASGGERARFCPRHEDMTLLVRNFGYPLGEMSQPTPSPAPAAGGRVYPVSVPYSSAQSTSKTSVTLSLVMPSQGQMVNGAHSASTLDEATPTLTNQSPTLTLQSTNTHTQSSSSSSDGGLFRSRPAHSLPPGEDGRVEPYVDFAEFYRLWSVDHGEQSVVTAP

[2] = AUC (0 to infinity) in mouse at 20 mg/kg, po; assay type: ADME, organism-based; parameters: time infinity, dose 20 mg/kg, route oral; settings: plasma
[3] = Oral bioavailability in mouse at 20 mg/kg; assay type: ADME, organism-based; settings: in vivo
[4] = Volume of distribution at steady state in mouse at 2 mg/kg, iv; assay type: ADME, organism-based; parameters: dose 2 mg/kg, route intravenous; settings: in vivo, read-out: Vdss
[5] = Cmax in mouse at 20 mg/kg, po; assay type: ADME, organism-based; parameters: dose 20 mg/kg, route oral; settings: in vivo
[6] = Clearance in mouse at 2 mg/kg, iv; assay type: ADME, organism-based; parameters: dose 2 mg/kg, route intravenous; settings: in vivo
[7] = Half life in mouse at 2 mg/kg, iv; assay type: ADME, organism-based; parameters: dose 2 mg/kg, route intravenous; settings: in vivo
[8] = AUC (0 to infinity) in mouse at 2 mg/kg, iv; assay type: ADME, organism-based; parameters: time infinity, dose 2 mg/kg, route intravenous; settings: plasma
[9] = Metabolic stability in mouse liver microsomes assessed as extraction ratio; assay type: ADME, Microsome; settings: read-out: ERH
[10] = Metabolic stability in human liver microsomes assessed as extraction ratio; assay type: ADME, Microsome; settings: read-out: ERH
[11] = Permeability of the compound by PAMPA; assay type: ADME; settings: read-out: permeability

Compound	IC50 [1] [µM]	IC50 (TAK1/TAB1) [µM]	other results
CC(=O)N1CCC(n2cc(-c3cnc(N)c4oc(-c5cccc(N(C)C)c5)cc34)cn2)CC1	0.69	2.4	
CC(=O)N1CCC(n2cc(-c3cnc(N)c4oc(-c5ccc(OC(F)(F)F)cc5)cc34)cn2)CC1	8	3.5	
CC(=O)N1CCC(n2cc(-c3cnc(N)c4oc(-c5ccc(C#N)cc5)cc34)cn2)CC1	2.8	2.5	
CC(=O)N1CCC(n2cc(-c3cnc(N)c4oc(-c5ccc(C(=O)N(C)C)cc5)cc34)cn2)CC1		> 30	
CC(=O)N1CCC(n2cc(-c3cnc(N)c4oc(-c5ccc(CO)cc5)cc34)cn2)CC1	4.4	2.8	
CC(=O)N1CCC(n2cc(-c3cnc(N)c4oc(-c5ccc(CC#N)cc5)cc34)cn2)CC1	1.9	1.5	
CC(=O)N1CCC(n2cc(-c3cnc(N)c4oc(-c5cccc6cnsc56)cc34)cn2)CC1	0.044	0.023	AUC(0-inf) [2]: 285 ng·h/mL; bioavailability [3]: 11%; Vd [4]: 2.5 L/kg; Cmax [5]: 1600 nM; clearance [6]: 128 mL/min/kg; half-life [7]: 30 min; AUC(0-inf) [8]: 261 ng·h/mL; hepatic extraction ratio [9]: 0.84; hepatic extraction ratio [10]: 0.73
CC(=O)N1CCC(n2cc(-c3cnc(N)c4oc(-c5cccc6ncsc56)cc34)cn2)CC1	0.01	0.013	hepatic extraction ratio [9]: 0.68; hepatic extraction ratio [10]: 0.62
CC(=O)N1CCC(n2cc(-c3cnc(N)c4oc(-c5cccc6nnsc56)cc34)cn2)CC1	0.012	0.004	hepatic extraction ratio [9]: 0.7; hepatic extraction ratio [10]: 0.68
CC(=O)N1CCC(n2cc(-c3cnc(N)c4oc(-c5csc6cnccc56)cc34)cn2)CC1	0.11	0.03	hepatic extraction ratio [9]: 0.72; hepatic extraction ratio [10]: 0.68
CC(=O)N1CCC(n2cc(-c3cnc(N)c4oc(-c5cn(C)c6cnccc56)cc34)cn2)CC1	0.34	0.018	hepatic extraction ratio [9]: 0.91; hepatic extraction ratio [10]: 0.64
CC(=O)N1CCC(n2cc(-c3cnc(N)c4oc(-c5cccc6ccccc56)cc34)cn2)CC1	1.2	1	hepatic extraction ratio [9]: 0.77; hepatic extraction ratio [10]: 0.66
CC(=O)N1CCC(n2cc(-c3cnc(N)c4oc(-c5csc6ccccc56)cc34)cn2)CC1	0.44	0.34	hepatic extraction ratio [9]: 0.85; hepatic extraction ratio [10]: 0.68
CC(=O)N1CCC(n2cc(-c3cnc(N)c4oc(-c5cnc6cnccn56)cc34)cn2)CC1		1.4	hepatic extraction ratio [9]: 0.52; hepatic extraction ratio [10]: 0
Nc1ncc(-c2cnn(C3CCNCC3)c2)c2cc(-c3ccccc3)oc12		2.7	Papp [11]: < 1 ×10⁻⁶ cm/s
Nc1ncc(-c2cnn(C3CCNCC3)c2)c2cc(-c3cccc4ccsc34)oc12		1.2	Papp [11]: < 1 ×10⁻⁶ cm/s
CC(=O)N1CCC(n2cc(-c3cnc(N)c4oc(-c5cccc(C#N)c5)cc34)cn2)CC1	0.37	0.25	
CC(=O)N1CCC(n2cc(-c3cnc(N)c4oc(-c5cccc(C(F)(F)F)c5)cc34)cn2)CC1	1.6	2.8	
CC(=O)c1cccc(-c2cc3c(-c4cnn(C5CCN(C(C)=O)CC5)c4)cnc(N)c3o2)c1	1	2.8	
CC(=O)N1CCC(n2cc(-c3cnc(N)c4oc(-c5cccc(C(N)=O)c5)cc34)cn2)CC1	3.1	0.53	

Compound	IC50 [1] [µM]	IC50 (TAK1/TAB1) [µM]	other results
CC(=O)N1CCC(n2cc(-c3cnc(N)c4oc(-c5cccc(CN)c5)cc34)cn2)CC1	4	0.79	
CC(=O)N1CCC(n2cc(-c3cnc(N)c4oc(-c5cccc(CO)c5)cc34)cn2)CC1	0.47	0.85	
CSc1ccc(-c2cc3c(-c4cnn(C5CCN(C(C)=O)CC5)c4)cnc(N)c3o2)cc1	5.2	17.5	
CC(=O)N1CCC(n2cc(-c3cnc(N)c4oc(-c5ccc(S(C)(=O)=O)cc5)cc34)cn2)CC1	> 20	25.7	
CC(=O)N1CCC(n2cc(-c3cnc(N)c4oc(-c5ccc(N)cc5)cc34)cn2)CC1	1	1.8	
CC(=O)N1CCC(n2cc(-c3cnc(N)c4oc(-c5ccc(NS(C)(=O)=O)cc5)cc34)cn2)CC1		4.9	
CC(=O)N1CCC(n2cc(-c3cnc(N)c4oc(-c5ccc(O)cc5)cc34)cn2)CC1	0.5	0.27	
CC(=O)N1CCC(n2cc(-c3cnc(N)c4oc(-c5cnsc5)cc34)cn2)CC1		0.88	
CSc1ccccc1-c1cc2c(-c3cnn(C4CCN(C(C)=O)CC4)c3)cnc(N)c2o1	0.5	0.43	
CC(=O)Nc1ccccc1-c1cc2c(-c3cnn(C4CCN(C(C)=O)CC4)c3)cnc(N)c2o1		> 30	
CC(=O)N1CCC(n2cc(-c3cnc(N)c4oc(-c5ccccc5C#N)cc34)cn2)CC1	1.7	0.56	
CC(=O)N1CCC(n2cc(-c3cnc(N)c4oc(-c5ccccc5C(F)(F)F)cc34)cn2)CC1		> 30	
CC(=O)c1ccccc1-c1cc2c(-c3cnn(C4CCN(C(C)=O)CC4)c3)cnc(N)c2o1	3.1	5.4	
CC(=O)N1CCC(n2cc(-c3cnc(N)c4oc(-c5ccccc5C(N)=O)cc34)cn2)CC1	4.5	6	
CC(=O)N1CCC(n2cc(-c3cnc(N)c4oc(-c5ccccc5CO)cc34)cn2)CC1	1.5	0.75	
COCc1ccccc1-c1cc2c(-c3cnn(C4CCN(C(C)=O)CC4)c3)cnc(N)c2o1	1.8	1.4	
CC(=O)N1CCC(n2cc(-c3cnc(N)c4oc(-c5ccccc5CC#N)cc34)cn2)CC1	0.53	0.25	
CSc1cccc(-c2cc3c(-c4cnn(C5CCN(C(C)=O)CC5)c4)cnc(N)c3o2)c1	1.2	4.3	
CC(=O)N1CCC(n2cc(-c3cnc(N)c4oc(-c5cccc(S(C)(=O)=O)c5)cc34)cn2)CC1	1.1	4.9	
CC(=O)N1CCC(n2cc(-c3cnc(N)c4oc(-c5cccc(S(N)(=O)=O)c5)cc34)cn2)CC1		1.8	

Compound	IC50 [1] [µM]	IC50 (TAK1/TAB1) [µM]	other results
CC(=O)N1CCC(n2cc(-c3cnc(N)c4oc(-c5cccc(S(=O)(=O)N(C)C)c5)cc34)cn2)CC1	1.1	1.4	
CC(=O)N1CCC(n2cc(-c3cnc(N)c4oc(-c5cccc([N+](=O)[O-])c5)cc34)cn2)CC1	0.2	0.089	
CC(=O)N1CCC(n2cc(-c3cnc(N)c4oc(-c5cccc(N)c5)cc34)cn2)CC1	0.51	0.77	
CC(=O)Nc1cccc(-c2cc3c(-c4cnn(C5CCN(C(C)=O)CC5)c4)cnc(N)c3o2)c1	9	3.2	
CC(=O)N1CCC(n2cc(-c3cnc(N)c4oc(-c5cccc(O)c5)cc34)cn2)CC1	0.61	0.061	
COc1cccc(-c2cc3c(-c4cnn(C5CCN(C(C)=O)CC5)c4)cnc(N)c3o2)c1	1.2	1.8	
COCCOc1cccc(-c2cc3c(-c4cnn(C5CCN(C(C)=O)CC5)c4)cnc(N)c3o2)c1	2.7	3.2	
CC(=O)N1CCC(n2cc(-c3cnc(N)c4oc(-c5cccc(OC(F)(F)F)c5)cc34)cn2)CC1	1.8	3.5	
CC(=O)N1CCC(n2cc(-c3cnc(N)c4oc(-c5ccccc5)cc34)cn2)CC1	0.52	1.1	
CC(=O)N1CCC(n2cc(-c3cnc(N)c4oc(-c5cccnc5)cc34)cn2)CC1		0.71	
CC(=O)N1CCC(n2cc(-c3cnc(N)c4oc(C5=CCNCC5)cc34)cn2)CC1		0.8	
CC(=O)N1CCC(n2cc(-c3cnc(N)c4oc(C5=CCCCC5)cc34)cn2)CC1		0.46	
CC(=O)N1CCC(n2cc(-c3cnc(N)c4oc(C5CCCCC5)cc34)cn2)CC1		0.65	
CC(=O)N1CCC(n2cc(-c3cnc(N)c4oc(C5=CCCC5)cc34)cn2)CC1		1.2	
CC(=O)N1CCC(n2cc(-c3cnc(N)c4oc(C5CCCC5)cc34)cn2)CC1		2.1	
CC(=O)N1CCC(n2cc(-c3cnc(N)c4oc(-c5ccsc5)cc34)cn2)CC1		0.48	
CC(=O)N1CCC(n2cc(-c3cnc(N)c4oc(-c5cn[nH]c5)cc34)cn2)CC1	9.1	0.13	
CC(=O)N1CCC(n2cc(-c3cnc(N)c4oc(-c5cnn(C)c5)cc34)cn2)CC1		1.6	
CC(=O)N1CCC(n2cc(-c3cnc(N)c4oc(-c5cnco5)cc34)cn2)CC1		1.2	

— ChEMBL document CHEMBL2407040, “Discovery and optimization of 7-aminofuro[2,3-c]pyridine inhibitors of TAK1” (Bioorg Med Chem Lett, 2013)
